Several values for one entry are separate records, joined by “and”; a condition that tells them apart may be missing. Identical values can stand only once. Bridge positions count the residues as written; N and C are the ends. Ends that are not written are not given here.
Key:
[1] = system: α4β7 on RPMI8866 cells; assay: Binding of α4β7 on RPMI8866 cells to plate-bound biotinylated V2/V3 peptides and its inhibition by ACT-1 (AlamarBlue); format: cell-based, human; settings: streptavidin plate, biotinylated peptide 5 μg/ml; cells pre-incubated with ACT-1 0.5 μg/ml 45 min 37°C; 8 hour time point; average of 3 to 12 experiments in duplicate or triplicate
Method: Triplicate wells of a 96-well U-bottom polystyrene plate (Immunlon) were coated overnight at 4°C with 100 μl of 2 μg/ml of MAdCAM-1 or Streptavidin diluted in 0.05 M bicarbonate buffer, pH 9.6. The streptavidin-coated plates were then incubated with biotinylated cyclic or linear V2 peptides or cyclic V3 peptides (5 μg/ml in bicarbonate buffer, See Table 1 for sequence data) for 1 hour at 37°C. The solution from the plates was discarded and the plates were then blocked with blocking buffer (25 mM TRIS, 2.7 mM potassium chloride, 150 mM sodium chloride, 0.5% casein, 4 mM manganese chloride, pH 7.2) for 1 hour at 37°C. The solution was discarded and the plates were incubated with sample buffer (25 mM TRIS, 2.7 mM potassium chloride, 150 mM sodium chloride, 4 mM manganese chloride, pH 7.2 containing 1% fetal bovine sera) for 45 minutes at 37°C. Plates were manually washed 4 times with blocking buffer followed by the addition of 2 x 10^5 RPMI8866 cells/well that had been pre-incubated for 45 minutes at 37°C with sample buffer, with sample buffer containing 0.5 μg/ml of mAb ACT-1 or as a control, normal mouse serum (1:100). Plates were then incubated at 37°C (5% CO2) for 1 hour, washed 5 times with wash buffer followed by the addition of 100 μl of RPMI-1640 containing 1% FBS, pen/strep/glutamine. The adhered cells were detected by the addition of 10 μl of AlamarBlue® dye. Plates were incubated at 37°C (5% CO2) for 8 hours. Fluorescence was measured at 2 hour intervals using a M2 plate reader. For each condition, a minimum of 2 to 12 independent experiments run in duplicate or triplicate was performed. The optimum amount of coating proteins/peptides and the amount of ACT-1 required to inhibit α4β7 on RPMI8866 cells was determined in separate experiments (data not shown).

[2] = system: α4β7 integrin binding to MAdCAM-1; assay: Competitive inhibition of binding of α4β7 on RPMI8866 cells to MAdCAM-1 by peptides, viruses, IMCs and controls; format: cell-based, human; settings: for Inhibition of α4β7 integrin binding to MAdCAM-1 by peptide (competition): peptide 10 μg/ml, cells pre-incubated 45 min 37°C, 2–4 experiments in triplicate; for % Inhibition ± SD of α4β7 integrin binding to MAdCAM-1: average of 3–7 experiments in triplicate
Method: 96-well plates were coated with MAdCAM-1 as described above. RPMI8866 cells (2 X 10^6/ ml) were incubated with cyclic V2 or V3 MN, TH023, or acute subtype C (C-6980v0c22) peptides or with scrambled flanking region (SFL) or the mid region (SMR) TH023 V2 or with a completely scrambled (SCR) TH023 peptide (10 μg/ml) for 45 minutes at 37°C before being added in triplicate to the MAdCAM-1 coated plates for 1 hour at 37°C. In concurrent experiments, RMI8866 cells were incubated with purified primary HIV-1 (0.75 ng to 6 ng/well p24) subtype B (SF162, US-1, JRFL), subtype CRF01_AE viruses (92TH023), IMCs (0.75 ng to 1000 ng/well p24 in each case) containing acute or chronic envelopes (Acute CRF01_AE (703357) [GenBank:JN944658], C (C-6980v0c22) [GenBank:HM215344], A(851891); Chronic CRF01_AE (CM235.2) [AF259954.1], C (ET02220LucR) [U46016]) or with pSG3Δenv. pSG3Δenv contained a four-nucleotide insertion mutation (CTAG) in Env, leading to a translation stop codon after amino acid residue 142. The pSG3Δenv clone is routinely used for generating Env pseudotyped infectious virions.
Viruses were tested in triplicate in two independent experiments. In additional experiments, mannose, HIV-1 p24, and ovalbumin (0.2–10 μg/ml) were used in the competition assay as nonspecific protein controls (data in Table 2; 3–7 experiments performed in triplicate), whereas, an anti-RSV mAb, Synagis® was used as a nonspecific antibody control. Synagis® was incubated for 45 minutes with either MAdCAM-1 or with RPMI8866 cells and then placed in the assay system. The remainder of the assay was similar to that described above. Significance was determined by paired Student’s t test.

[3] = system: α4β7 on RPMI8866 cells; assay: Flow cytometry binding of ACT-1, gp120 and cyclic V2 peptides to RPMI8866 cells; parameters: species or system human; settings: gp120 2.5 μg (anti-gp145 + anti-mouse Texas Red); biotinylated peptides 1 μg and 5 μg (neutrAvidin-PE); 30 min on ice; n = 2
Method: RPMI8866 cells (0.5 x10^6) were incubated for 30 minutes on ice with 10% normal goat sera in PBS to block the Fc receptors. Cells were suspended in cold FACS buffer (PBS-containing 0.5% BSA) and incubated at room temperature for 30 minutes with the mAb ACT-1 conjugated to APC (1 μg). Cells were washed twice with cold FACS buffer, fixed with 2% formaldehyde in PBS, and analyzed on a LSRII flow cytometer. The data was analyzed using FlowJo8.8.6 software (TreeStar Inc.).
RPMI8866 cells (1 x10^6) were suspended in cold FACS buffer (PBS-containing 0.5% BSA) and incubated at room temperature for 30 minutes with LIVE ⁄ DEAD® Fixable Dead Cell Stain (Life Technologies) as per the manufacturer’s instruction. Cells were washed twice with cold FACS buffer before being incubated with 10% goat sera in PBS for 30 minutes on ice. All subsequent incubations were carried out for 30 minutes on ice. CHO- expressed HIV-1IIIB rgp120 (2.5 μg) and biotinylated cyclic V2-TH023 peptide (1 μg and 5 μg) were incubated with RPMI8866 cells. […] Cells were washed twice with cold FACS buffer, fixed with 2% formaldehyde in PBS, and analyzed on a LSRII flow cytometer. The data was analyzed using FlowJo8.8.6 software (TreeStar Inc.).

| Compound | Percent inhibition by ACT-1 of binding of α4β7 on RPMI8866 cells to the plate-bound peptide [1] [%] | Inhibition of α4β7 integrin binding to MAdCAM-1 by peptide (competition) [2] | further results |
| --- | --- | --- | --- |
| CTRPSNNTRTSINIGPGQVFYRTGDIIGDIRKAYC (disulfide 1-35 (inferred)) [Cyclic V3 TH023, cyclic V3 loop peptide, strain 92TH023, HXB2 295–331] | 67.6 | 80–90% and 80% | – |
| XSFNMTTELRDKKQKVHALFYKLDIVPIEDNTSSSEYRLINX [Linear V2 TH023, linear V2 92TH023 peptide with S-methyl Cysteine at both ends] | 65.5 | – | – |
| Synagis: anti-RSV mAb used as a nonspecific antibody control [reference compound] | – | – | Inhibition of α4β7 binding to MAdCAM-1 by nonspecific antibody control ([2]; mAb incubated 45 min either with MAdCAM-1-coated plate or with RPMI8866 cells, 3 experiments): did not inhibit the α4β7 binding |
| OC[C@H]1OC(O)[C@@H](O)[C@@H](O)[C@@H]1O (stereo partly drawn) [Mannose, mannose, reference compound] | – | – | % Inhibition ± SD of α4β7 integrin binding to MAdCAM-1 ([2]; 0.2 μg/ml): 6.7 ± 7.6%; % Inhibition ± SD of α4β7 integrin binding to MAdCAM-1 ([2]; 1.0 μg/ml): 7.6 ± 8.8%; % Inhibition ± SD of α4β7 integrin binding to MAdCAM-1 ([2]; 5 μg/ml): 16.3 ± 14.9%; % Inhibition of α4β7 integrin binding to MAdCAM-1 ([2]; 10 μg/ml, average of triplicate determinations from a single experiment): 0%; Inhibition of α4β7 integrin binding to MAdCAM-1 by nonspecific controls (in words) ([2]; 0.2–10 μg/ml): no significant inhibition |
| CTRPNYNKRKRIHIGPGRAFYTTKNIKGTIRQAHC (disulfide 1-35 (inferred)) [Cyclic V3 MN, cyclic V3 loop peptide based on MN strain (subtype B)] | 75.5 | 80% | – |
| CTRPNNNTRKSIRIGPGQTFYATGDIIGDIRQAYC (disulfide 1-35 (inferred)) [Cyclic V3 Acute C, cyclic V3 loop peptide based on acute C strain C06980v0c22] | 70.0 | – | – |
| gp120: HIV-1IIIB rgp120 (CHO expressed) [reference compound] | – | – | Binding to α4β7 on RPMI8866 cells (flow cytometry) [3]: bound to α4β7 |
| CSFNITTELRDKRKKEHALFNNLDIVQLDGNSSLYRLINC (disulfide 1-40 (inferred)) [Cyclic V2 Acute C, cyclic V2 loop peptide based on acute C strain C06980v0c22] | 72.3 | – | – |
| CSFNMTTELRDKKQKVHALFYKLDIVPIEDNTSSSEYRLINC (disulfide 1-42 (inferred)) [Cyclic V2 TH023, biotinylated cyclic V2 loop peptide of gp120, strain 92TH023 (CRF01_AE), HXB2 157–196] | 62.9 | 80–90% | Binding to α4β7 on RPMI8866 cells (flow cytometry) [3]: bound to α4β7 |
| CSFNITTSIGDKMQKEYALLYKLDIEPIDNDSTSYRLISC (disulfide 1-40 (inferred)) [Cyclic V2 MN, cyclic V2 loop peptide based on MN strain (subtype B)] | 66.3 | – | – |

— PMC4666614, “Identification of New Regions in HIV-1 gp120 Variable 2 and 3 Loops that Bind to α4β7 Integrin Receptor” (PLoS ONE, 2015)
